{
  "source": "paper PMC4841940",
  "about": "(Molecular cell, 2016)",
  "key": {"[1]": {"target": "AF9 YEATS domain, wild type (UniProt P42568)", "sequence (P42568 1-138)": "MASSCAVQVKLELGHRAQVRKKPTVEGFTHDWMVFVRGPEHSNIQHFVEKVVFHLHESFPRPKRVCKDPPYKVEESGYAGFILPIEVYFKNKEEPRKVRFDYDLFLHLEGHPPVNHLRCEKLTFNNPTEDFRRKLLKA", "assay": "ITC"}, "[2]": {"target": "second bromodomain of BRD3 (UniProt Q15059)", "sequence (Q15059 307-416)": "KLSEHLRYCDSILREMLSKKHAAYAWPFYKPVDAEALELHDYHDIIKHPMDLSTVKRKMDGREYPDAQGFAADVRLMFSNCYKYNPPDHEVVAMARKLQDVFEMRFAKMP", "assay": "ITC"}, "[3]": {"test_system": "RAW264.7 cells, AF9KO + F59A", "assay": "qRT-PCR, AF9 KO with F59A addback", "assay_type": "cell-based, mouse", "conditions": "crotonate pre-treatment before LPS"}, "[4]": {"test_system": "FLAG-AF9 (WT) recruitment in RAW264.7 cells", "assay": "FLAG-ChIP-qPCR, FLAG-AF9", "assay_type": "cell-based, mouse", "conditions": "increasing concentrations of crotonate, then LPS; Rsad2, Il6, Ifit1, Cmpk2, Gbp2"}, "[5]": {"test_system": "histone crotonylation (H3K18cr) / crotonyl-CoA", "conditions": "ref Sabari et al., 2015, cited from earlier work"}, "[6]": {"test_system": "RAW264.7 cells, AF9KO + WT", "assay": "qRT-PCR, AF9 KO with wild type AF9 addback", "assay_type": "cell-based, mouse", "conditions": "crotonate pre-treatment before LPS"}, "[7]": {"test_system": "RAW264.7 cells (parental)", "assay": "qRT-PCR of crotonate-responsive genes, parental cells", "assay_type": "cell-based, mouse", "conditions": "crotonate pre-treatment before LPS"}, "[8]": {"test_system": "FLAG-AF9 (F59A) recruitment in RAW264.7 cells", "assay": "FLAG-ChIP-qPCR, FLAG-AF9", "assay_type": "cell-based, mouse", "conditions": "increasing concentrations of crotonate, then LPS; Rsad2, Il6, Ifit1, Cmpk2, Gbp2"}, "RAW264.7 cells, AF9 KO": {"test_system": "RAW264.7 cells, AF9 KO", "assay": "qRT-PCR of crotonate-responsive genes, AF9 knockout", "assay_type": "cell-based, mouse", "conditions": "crotonate pre-treatment before LPS"}, "[9]": {"test_system": "AF9 recruitment to genes in RAW264.7 cells", "assay": "FLAG-AF9 ChIP-seq in RAW264.7 cells", "assay_type": "cell-based, mouse", "conditions": "10mM crotonate pre-treatment then LPS"}},
  "note": "“Also recorded” adds a separate entry of the source.",
  "data": [
    {"molecule": "histone H3_(1–15)K9su peptide (from UniProt P68431 2-16)", "values": [
      {"measurement": "Kd", "setting": "[1]", "result": 500, "unit": "µM"}
    ]},
    {"molecule": "H3K18bu peptide (acylation series of Figure 4C)", "values": [
      {"measurement": "fold reduced affinity against H3K18ac", "setting": "[2]", "result": 38, "unit": "fold"}
    ]},
    {"molecule": "C/C=C/C(=O)O", "note": "[crotonate]", "values": [
      {"measurement": "rescue of crotonate response, AF9 (F59A) addback", "setting": "[3]", "result": "not mutant AF9 (F59A) rescued this reduction"},
      {"measurement": "AF9 (WT) ChIP-qPCR signal", "setting": "[4]", "result": "AF9 signal increases with increasing concentrations of crotonate"},
      {"measurement": "effect on crotonyl-CoA and acetyl-CoA", "setting": "[5]; cellular concentrations", "result": "selectively increases cellular concentrations of crotonyl-CoA, the high-energy donor of crotonyl, while leaving acetyl-CoA, the high-energy donor of acetyl, unaffected"},
      {"measurement": "effect on Kcr vs Kac", "setting": "[5]", "result": "specifically enhances Kcr, and does not significantly affect Kac"},
      {"measurement": "rescue of crotonate response, wild type AF9 addback", "setting": "[6]", "result": "addback of wild type AF9 but not mutant AF9 (F59A) rescued this reduction"},
      {"measurement": "expression of Ccl3 (non-responsive gene)", "setting": "[7]", "result": "unaffected by crotonate pre-treatment"},
      {"measurement": "AF9 (F59A) ChIP-qPCR signal, crotonate", "setting": "[8]", "result": "the F59A mutant is unresponsive"},
      {"measurement": "crotonate response in AF9 KO cells", "setting": "RAW264.7 cells, AF9 KO", "result": "significantly reduced response; also recorded: significantly reduced the crotonate response in our model system, but did not abolish it completely"},
      {"measurement": "FLAG-AF9 ChIP-seq signal", "setting": "[9]; metagene analysis", "result": "FLAG-AF9 signal was higher with crotonate treatment only for crotonate responsive genes"},
      {"measurement": "mean fold-change in FLAG-AF9 RPKM, crotonate unresponsive genes", "setting": "[9]; ± 1kb TSS, 233 genes", "result": 0.92, "unit": "fold"}
    ]},
    {"molecule": "histone H3_(1–15)K9ac peptide (from UniProt P68431 2-16)", "values": [
      {"measurement": "Kd", "setting": "[1]", "result": 5, "unit": "µM"}
    ]},
    {"molecule": "H3K18pr peptide (acylation series of Figure 4C)", "values": [
      {"measurement": "fold reduced affinity against H3K18ac", "setting": "[2]", "result": 4, "unit": "fold"}
    ]}
  ]
}
